Like-named read-outs stand apart in the source and are kept apart here.
Tests used:
[1] = tested on: lepidopteran larvae: cabbage loopers (Trichoplusia ni) and beet armyworms (Spodoptera exigua); format: in vivo; details: plants
Description: In a first group of tests, the results of which are shown in Table 7 (pages 22-24), romaine lettuce plants two to three inches in height were exposed to 10 milliliters of solution applied to each plant using a low volume trigger spray. With respect to containers 0-7, ten plants were employed per container, nine were treated and one was an internal control. In containers M-H, ten plants per container were used, five were treated and 5 were internal controls. Each container was infested with 30 lepidopteran larvae between the 5th and 6th instar development. Fifteen cabbage loopers (Trichoplusia ni) and 15 beet armyworms (Spodoptera exigua) were used to infest the romaine lettuce plants. Visual evaluations for the average percentage total surface area damage were taken 24 hours after infestation. Percentage damage was evaluated by 5% increments for total damage across all plant leaves.
As indicated in the first column of Table 7, in some tests, no insecticide was employed and there were two controls; a no water control and a no dye control. A wide variety of insecticides selected from the following group were tested: Chlorantranilopril, Acephate, Methoxyfenozide, Spinosad, Permethrin, and Indoxacarb. The product concentration is shown in PPM in column 2. Column 3 is divided into two subunits, the first being CO3 and the second, PO4. In all instances in columns 3, 4 and 5 and their sub-columns, the concentrations used were 200:1. The fourth column employed amine oxide, but no buffer. […] Two sub-columns each are represented for CO3 and PO4. The final column is a reading of the Percent Lepidopteran Damage to the romaine lettuce plants after 24 hours.
In addition to testing the buffered amine system of the present invention with the two amine oxides identified as CO3 and PO4 and their use with 12 carbon length and a mixture of 12 and 18 designated 1218 for comparative data purposes various differences were created in the testing. Some of the tests were performed with (a) no insecticide along with (b) no amine oxide for CO3 and PO4 and (c) with no buffer, but with amine oxide. Also, tests were run using no insecticide and no water control with no foliar application being made. Tests with no insecticide and no dye control employed foliar application of water only. The tests were conducted with all of the testing on the buffer alone, the amine oxide alone and the buffered amine oxide system of the present invention in the concentration of 200:1.

[2] = tested on: lepidopteran larvae: cabbage loopers (Trichoplusia ni) and beet armyworms (Spodoptera exigua); format: in vivo; details: leaf discs
From the text: A second series of tests involved romaine lettuce discs approximately ⅝ inch in diameter. (L. sativa). They were dipped in the treatment solution one second per disc. This test involved the 5/5 configuration, i.e., 5 treated and 5 untreated. The infestation involved […] lepidopteran larvae at the 3rd to 4th instar development per container: four cabbage loopers (Trichoplusia ni), and four beet armyworms (Spodoptera exigua) were employed. The test containers were placed in a dark humidity cabinet at 15° C. and 80% relative humidity. Visual evaluations of the average percent damage were taken at 24, 48 and 72 hours after the initiation of infestation. Damage was evaluated in 5% increments based on total disc area.
In the tests reported in Table 8 pages 29-32), romaine lettuce leaf discs ⅝″ in diameter (L. sativa) were dipped in the treatment solution for about one second per disc. Infestation was provided by eight lepidopteran larvae at the 3rd to 4th instar development per container. Four cabbage loopers (Trichoplusia ni) and four beet armyworms (Spodoptera exigua) were employed in infestation. The containers were placed in a dark humidity cabinet at 15° C. and 80% relative humidity. Visual observations of the average percent damage was taken at 24, 48 and 72 hours after infestation. Damage evaluation was by 5% increments over the total disc area.
In the tests results provided in Table 8, the identity and concentrations of the insecticide was identical to the tests results reported in Table 7. The concentration of 200:1 was employed for the no amino oxide, no buffer and buffered amine oxide system. This series of tests, however, reported how the percent damage changed with time at the respective 24, 48 and 72 hour intervals.

[3] = insecticide + CO3 buffer 200:1, no amine oxide, PPM: Chlorantranilopril 60, Acephate 70, Methoxyfenozide 100, Spinosad 30, Permethrin 10, Indoxacarb 50
[4] = insecticide + PO4 buffer 200:1, no amine oxide, PPM: Chlorantranilopril 60, Acephate 70, Methoxyfenozide 100, Spinosad 30, Permethrin 10, Indoxacarb 50
[5] = insecticide + amine oxide 12, no buffer, 200:1, PPM: Chlorantranilopril 60, Acephate 70, Methoxyfenozide 100, Spinosad 30, Permethrin 10, Indoxacarb 50
[6] = insecticide + amine oxide 1218, no buffer, 200:1, PPM: Chlorantranilopril 60, Acephate 70, Methoxyfenozide 100, Spinosad 30, Permethrin 10, Indoxacarb 50
[7] = insecticide + buffered amine oxide system CO3, 12, 200:1, PPM: Chlorantranilopril 60, Acephate 70, Methoxyfenozide 100, Spinosad 30, Permethrin 10, Indoxacarb 50
[8] = insecticide + buffered amine oxide system CO3, 1218, 200:1, PPM: Chlorantranilopril 60, Acephate 70, Methoxyfenozide 100, Spinosad 30, Permethrin 10, Indoxacarb 50
[9] = insecticide + buffered amine oxide system PO4, 12, 200:1, PPM: Chlorantranilopril 60, Acephate 70, Methoxyfenozide 100, Spinosad 30, Permethrin 10, Indoxacarb 50
[10] = insecticide + buffered amine oxide system PO4, 1218, 200:1, PPM: Chlorantranilopril 60, Acephate 70, Methoxyfenozide 100, Spinosad 30, Permethrin 10, Indoxacarb 50
[11] = insecticide alone, highest, PPM: Chlorantranilopril 120, Acephate 140, Methoxyfenozide 200, Spinosad 60, Permethrin 20, Indoxacarb 100
[12] = insecticide alone, increased, PPM: Chlorantranilopril 90, Acephate 105, Methoxyfenozide 150, Spinosad 45, Permethrin 15, Indoxacarb 75
[13] = insecticide alone, PPM: Chlorantranilopril 60, Acephate 70, Methoxyfenozide 100, Spinosad 30, Permethrin 10, Indoxacarb 50

Compound: COP(=O)(NC(C)=O)SC (centres unmarked) [Acephate]
- Percent Lepidopteran Damage to Romaine Lettuce 24 hr [1, 3]: 31.0%
- Percent Lepidopteran Damage to Romaine Lettuce 24 hr [1, 4]: 20.0%
- Percent Lepidopteran Damage to Romaine Lettuce 24 hr [1, 5]: 36.0%
- Percent Lepidopteran Damage to Romaine Lettuce 24 hr [1, 6]: 28.0%
- Percent Lepidopteran Damage to Romaine Lettuce 24 hr [1, 7]: 11.5%
- Percent Lepidopteran Damage to Romaine Lettuce 24 hr [1, 8]: 4.5%
- Percent Lepidopteran Damage to Romaine Lettuce 24 hr [1, 9]: 7.5%
- Percent Lepidopteran Damage to Romaine Lettuce 24 hr [1, 10]: 1.0%
- Percent Lepidopteran Damage to Romaine Lettuce 24 hr [1, 11]: 13.0%
- Percent Lepidopteran Damage to Romaine Lettuce 24 hr [1, 12]: 16.5%
- Percent Lepidopteran Damage to Romaine Lettuce 24 hr [1, 13]: 22.7%
- Percent Lepidopteran Damage to Romaine Lettuce 24 hr [2, 3]: 50.0%
- Percent Lepidopteran Damage to Romaine Lettuce 24 hr [2, 4]: 38.5%
- Percent Lepidopteran Damage to Romaine Lettuce 24 hr [2, 5]: 27.0%
- Percent Lepidopteran Damage to Romaine Lettuce 24 hr [2, 6]: 22.0%
- Percent Lepidopteran Damage to Romaine Lettuce 24 hr [2, 7]: 34.0%
- Percent Lepidopteran Damage to Romaine Lettuce 24 hr [2, 8]: 29.5%
- Percent Lepidopteran Damage to Romaine Lettuce 24 hr [2, 9]: 43.5%
- Percent Lepidopteran Damage to Romaine Lettuce 24 hr [2, 10]: 18.0%
- Percent Lepidopteran Damage to Romaine Lettuce 24 hr [2, 11]: 29.0%
- Percent Lepidopteran Damage to Romaine Lettuce 24 hr [2, 12]: 27.0%
- Percent Lepidopteran Damage to Romaine Lettuce 24 hr [2, 13]: 27.5%
- Percent Lepidopteran Damage to Romaine Lettuce 48 hr [2, 3]: 57.5%
- Percent Lepidopteran Damage to Romaine Lettuce 48 hr [2, 4]: 53.0%
- Percent Lepidopteran Damage to Romaine Lettuce 48 hr [2, 5]: 49.5%
- Percent Lepidopteran Damage to Romaine Lettuce 48 hr [2, 6]: 52.5%
- Percent Lepidopteran Damage to Romaine Lettuce 48 hr [2, 7]: 63.5%
- Percent Lepidopteran Damage to Romaine Lettuce 48 hr [2, 8]: 50.5%
- Percent Lepidopteran Damage to Romaine Lettuce 48 hr [2, 9]: 55.5%
- Percent Lepidopteran Damage to Romaine Lettuce 48 hr [2, 10]: 32.5%
- Percent Lepidopteran Damage to Romaine Lettuce 48 hr [2, 11]: 35.5%
- Percent Lepidopteran Damage to Romaine Lettuce 48 hr [2, 12]: 44.5%
- Percent Lepidopteran Damage to Romaine Lettuce 48 hr [2, 13]: 47.5%
- Percent Lepidopteran Damage to Romaine Lettuce 72 hr [2, 3]: 61.0%
- Percent Lepidopteran Damage to Romaine Lettuce 72 hr [2, 4]: 68.5%
- Percent Lepidopteran Damage to Romaine Lettuce 72 hr [2, 5]: 59.5%
- Percent Lepidopteran Damage to Romaine Lettuce 72 hr [2, 6]: 67.0%
- Percent Lepidopteran Damage to Romaine Lettuce 72 hr [2, 7]: 66.0%
- Percent Lepidopteran Damage to Romaine Lettuce 72 hr [2, 8]: 63.5%
- Percent Lepidopteran Damage to Romaine Lettuce 72 hr [2, 9]: 72.0%
- Percent Lepidopteran Damage to Romaine Lettuce 72 hr [2, 10]: 51.0%
- Percent Lepidopteran Damage to Romaine Lettuce 72 hr [2, 11]: 42.0%
- Percent Lepidopteran Damage to Romaine Lettuce 72 hr [2, 12]: 47.0%
- Percent Lepidopteran Damage to Romaine Lettuce 72 hr [2, 13]: 79.5%

Source: patent US10952433B2, “Solutions for enhancing the effectiveness of insecticides and fungicides on living plants and related methods” (priority 2015, dated 2021)
